Series [1] has as its system T24 cells. In words: XTT viability of T24 cells with or without CB1/CB2 inverse agonist, TRPV1/TRPV2 antagonist or TRPA1 blocker. In kind it is cell-based, human. As to conditions: CBD 13.8 μg/mL; inverse agonist 10 μM. The protocol: For quantification of phytocannabinoids by analytical HPLC, the standards were dissolved in methanol at various concentrations from 0-25 μg/mL.
Cell proliferation assay—XTT assay was carried out as described in [34], on T24 and HTB-9 cells. 1*10^4 cells/well were seeded in 96-wells plates, methanol was used as a vehicle control at the same concentration as the treatments. Mitomycin-C (MMC) was used as positive control. Cell viability was calculated relative to the vehicle control after subtracting blank.

In the next series the test system is CB1 receptor (CNR1). Put plainly: qRT-PCR of CB1 receptor RNA level in T24 cells. It is filed as cell-based, human. As to conditions: 6 hours; CBC+THC 11.2+1.8 μg/mL or CBD 9.2 μg/mL; relative to control, HPRT1 reference. As to the method:
(§1) Quantitative real-time (qRT) PCR—qRT PCR was carried out as described in [34]. Briefly, T24 cells were treated with cannabis compounds or methanol as a vehicle control for 6 h. Cells were then harvested and total RNA was isolated and reverse-transcribed. The expression of each target gene was normalized to the expression of Hypoxanthine Phosphoribosyltransferase 1 (HPRT1; geneID 3251) mRNA as the 2^−ΔΔCt and is presented as the ratio of the target gene to HPRT1 mRNA, expressed as 2^−ΔCt, where Ct is the threshold cycle and ΔCt=Ct Target gene—Ct HPRT1. Experiments were repeated three times. The primers were: for CB1 (CNR1; geneID 1268) forward 5′-[…]-3′ (SEQ ID NO: 1) and reverse 5′-[…]-3′ (SEQ ID NO: 2); for CB2 (CNR2; geneID 1269) forward 5′-[…]-3′ (SEQ ID NO: 3) and reverse 5′-[…]-3′ (SEQ ID NO: 4).
(In general: Real-time PCR tracks product formation cycle by cycle.)

Another series concerns CB2 receptor (CNR2). Put plainly: qRT-PCR of CB2 receptor RNA level in T24 cells. Conditions: 6 hours; CBC+THC 11.2+1.8 μg/mL or CBD 9.2 μg/mL; relative to control, HPRT1 reference. It is filed as cell-based, human. As to the method:
as §1

In series [2] the test system is T24 cells. In words: Cell cycle analysis (PI staining, FACS). In kind it is cell-based, human. As to conditions: 24 hours. The protocol:
For cell cycle analysis, cells were seeded in 6-wells culture plates at a concentration of 5×10^5 cells per well in McCoy (for T24 cells). The following day, media was replaced with new media containing treatments or methanol control. Cells were then incubated for 24 h at 37° C. in a humidified 5% CO2, 95% air atmosphere. Following 24 h of incubation, media was replaced with new media containing treatment or methanol control. Cells from each well were then harvested and collected separately and centrifuged for 2 min at 900 g. The cell pellet was washed once with 1 mL of PBS and fixed with 70% cold ethanol at 4° C. for at least 1 h. The fixed cells were pelleted out and washed twice with 1 mL of PBS. The cell pellet was then stained by re-suspending in 250 μL of PI solution (50 μg/mL) containing RNase A (100 μg/mL) for 30 min in the dark. Following, 200 μL of PBS were added to each tube and cells were analyzed using FACS.
Cell proliferation assay—XTT assay was carried on T24 and HTB-9 cells. 1×10^4 cells/well were seeded in 96-well plates. […] MMC was used as a positive control. XTT reagent (2,3,-bis (2-methoxy-4-nitro-5-sulfophenyl)-5-[(phenylamino)-carbonyl]-2H-tetrazolium inner salt) was added for 2 h at 37° C. in a humidified atmosphere of 5% CO2 to 95% air. Absorbance was recorded by a Synergy 111 hybrid reader photometer (BioTek) at 490 nm with 650 nm of reference wavelength. Cell survival (% r, viability) was estimated using the equation: % cell survival=(A490−A650) of treatment/(A490−A650) of solvent control×100. A490 and A650 are the absorbencies of the XTT colorimetric reaction. […] Apoptosis assay and cell cycle analysis—T24 cells were treated with cannabis compounds or with methanol as vehicle control. The cell cycle was determined at 24 hours and apoptosis was determined at 48 hours following treatment. Staining and detection followed the manufacturer's instructions. […] Then 200 μL of PBS was added to each tube and the cells were analyzed using FACS.

The subject of series [3] is T24 cells. In words: Apoptosis assay (Annexin V-FITC and PI, FACS). In kind it is cell-based, human. As to conditions: 48 hours; for cell apoptosis: CBC+THC 17.2+2.8, CBD 15, MMC 8 μg/mL, control 46.2%. As to the method:
Apoptosis assay and cell cycle analysis—T24 cells were treated with cannabis compounds or with methanol as a vehicle control. Cell cycle was determined at 24 h and apoptosis was determined at 48 h post-treatment. Staining and detection followed manufacturer instructions. Briefly, for the apoptosis assay, the MEBCYTO Apoptosis Kit with Annexin V-FITC and PI (MBL, Enco, 4700) was used. Cells were seeded in culture 6-wells plates, at density of 5×10^5 cells per well in McCoy's 5A (for T24 a cells) or in RPMI (for HTB-9 cells). The following day, media was replaced with new media containing treatment or methanol control. Cells were then incubated for 24 or 48 h at 37° C. in a humidified 5% CO2 95% air atmosphere. Following incubation, cells were harvested and collected separately. Tubes were centrifuged for 2 min at 900 g and cell pellets were resuspended and washed twice with 1 mL of PBS. The cells in each sample were resuspended in 85 μL of Annexin binding buffer. Cells were stained using 10 μL of Annexin V-FITC solution and 5 μL of propidium iodide (PI) working solution followed by 15 min incubation in the dark at room temperature. Then 400 μL of Annexin V binding buffer were added to each tube and flow cytometry was performed using a FORTESA flow cytometer (FACS). Cells were considered to be apoptotic if they were Annexin V+/PI− (early apoptotic) or Annexin V+/PI+ (late apoptotic). Live cells were defined as Annexin V−/PI−, and Annexin V−/PI+ as necrotic.
Cell proliferation assay—XTT assay was carried on T24 and HTB-9 cells. 1×10^4 cells/well were seeded in 96-well plates. […] MMC was used as a positive control. […] Absorbance was recorded by a Synergy 111 hybrid reader photometer (BioTek) at 490 nm with 650 nm of reference wavelength. […] The cell cycle was determined at 24 hours and apoptosis was determined at 48 hours following treatment. […] Then 200 μL of PBS was added to each tube and the cells were analyzed using FACS.

The test system of series [4] is T24 cells. Put plainly: Cell migration scratch assay. Conditions: sub-lethal: CBD 10, CBC+THC 8.6+1.4, MMC 4, CBC 10, THC 10 μg/mL; vs control. It is filed as cell-based, human. The protocol:
The scratch area, indicated by the cells that migrated to the scratch at time x, was calculated as the percentage of the scratch area at time x from time 0: […]

For series [5], the system named is T24 cells. In words: Cytoskeleton (F-actin) staining, confocal. Conditions: 24 hours; CBC+THC 8.6+1.4, CBD 10 μg/mL. It is filed as cell-based, human. The protocol:
Cytoskeleton staining—T24 cell were seeded on glass bottom cell culture dishes and fixed with 3.7% formaldehyde solution and permeabilized with 0.1% Triton X-100 at room temperature. Fixed cells were blocked in Phosphate Buffered Saline (PBS) containing 1% bovine serum albumin. For actin and nuclear staining cells were incubated with EasyProbes ActinRed 555 Stain, and Hoechst, respectively. Image acquisition was effected using a Leica SP8 laser scanning microscope (Wetzlar, Germany), equipped with a 405 and 552 nm solid state lasers, HCX PL APO CS 10×/0.40 or HC PL APO CS 60×/1.2 water immersion objectives (Leica, Wetzlar, Germany) and Leica Application Suite X software (Wetzlar, Germany). Hoechst and ActinRed 555 emission signals were detected with PMT and HyD (hybrid) detectors in ranges of 415-490 and 565-660 nm, respectively. At least 3 images were captured from each slide, and experiments were repeated 4 times.

The subject of the next series is E-cadherin. In words: qRT-PCR of E-cadherin mRNA in T24 cells. Conditions: 2 hours treatment, extracts 30, MMC 8 μg/mL. It is filed as cell-based, human. An excerpt:
[…] The RNA was reverse transcribed. The expression of each target gene was normalized to the expression of hypoxanthine phosphoribosyltransferase 1 (HPRT1; geneID 3251) mRNA as the 2^−66 ΔCt method that presents the differences ( ) in the threshold cycle (Ct) between the target gene and the HPRT1 gene. ΔCt=Ct target gene—Ct HPRT1. Experiments were repeated 4 times (4 biological repeats), with two more technical repeats. The primers were as follows:

For a further series, the system named is N-cadherin. Put plainly: qRT-PCR of N-cadherin mRNA in T24 cells. As to conditions: 2 hours treatment, 2 hours after washout. It is filed as cell-based, human. An excerpt: […] Cells were then harvested and total RNA was isolated. The RNA was reverse transcribed. The expression of each target gene was normalized to the expression of hypoxanthine phosphoribosyltransferase 1 (HPRT1; geneID 3251) mRNA as the 2^−66 ΔCt method that presents the differences ( ) in the threshold cycle (Ct) between the target gene and the HPRT1 gene. ΔCt=Ct target gene—Ct HPRT1. Experiments were repeated 4 times (4 biological repeats), with two more technical repeats. The primers were as follows:

Series [6] concerns T24 cells. Put plainly: Transwell cell invasion assay. Conditions: MMC 4 μg/mL, positive control.
From the text: A transwell assay, as described in [35], was used to determine cell invasion (n=3),

For `C=C(C)[C@@H]1CCC(C)=C[C@H]1c1c(O)cc(CCCCC)cc1O` [CBD, Cannabidiol], the “effect of CB1 and CB2 inverse agonists on CBD cytotoxicity” value in the series on T24 cells [1] is listed as “Only CB2 inverse agonist completely abolished cytotoxicity”. Besides, the “CB1 receptor RNA level induction” value in the series with CB1 receptor (CNR1) worked out at 1.35 fold. Besides, the “CB2 receptor RNA level induction” value in the series on CB2 receptor (CNR2) is 2.32 fold. The G2/M-phase cells with T24 cells [2] (CBD 15 μg/mL, insignificant increase, control 17.4%) amounted to 38.3%. Also, in the series with T24 cells [3], the cell apoptosis came to 81.7%. Further, the “cell migration into the scratch” value in the series on T24 cells [4] was “marked and significant reduction in the ability of the cells to migrate into the scratch”. The “F-actin filaments in the cell periphery” value in the series on T24 cells [5] was “induced accumulation of F-actin filaments in the cell periphery”.

In the case of `CO[C@@]12[C@H](COC(N)=O)C3=C(C(=O)C(C)=C(N)C3=O)N1C[C@@H]1N[C@@H]12` [MMC, Mitomycin-C], the G2/M-phase cells in the series with T24 cells [2] (DQ 30, sCBD 30, MMC 8 μg/mL) came to 28.1%. Also, the S-phase cells in the series with T24 cells [2] (DQ 30, sCBD 30, MMC 8 μg/mL, vehicle control 19.6%) was determined as 34.4%. In addition, the cell apoptosis in the series with T24 cells [3] came to 79.6%. The cell necrosis with T24 cells [3] (DQ 30, sCBD 30, MMC 8 μg/mL, control 1.69%) is given as 25.13%. In addition, the E-cadherin expression entry with E-cadherin (2 hours after washout) is on record as “reduced”; in the series on E-cadherin (6 hours after washout), “significantly induced”. In addition, the N-cadherin expression entry with N-cadherin was “slightly reduced”. Further, the “reduction of cell invasion in comparison to control” value in the series on T24 cells [6] was 43.7±4.8%.

These data come from patent US20240041902A1, “COMPOSITIONS AND METHODS FOR THE TREATMENT OF UROTHELIAL CANCER” (The State of Israel, Ministry of Agriculture & Rural …, priority 2020, published 2024).
